From PubChem BioAssay (NCI)
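Five concentrations, 48 hours, 96-well plates. TGI marks complete inhibition of growth.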

Assays:
Experiment in all cases: NCI tumour cell line growth inhibition, 48 h
[1] = test system: A498 renal
[2] = test system: A549 NSCLC
[3] = test system: ACHN renal
[4] = test system: CAKI-1 renal
[5] = test system: CCRF-CEM leukemia
[6] = test system: COLO 205 colon
[7] = test system: DU-145 prostate
[8] = test system: EKVX NSCLC
[9] = test system: HCC-2998 colon
[10] = test system: HCT-116 colon
[11] = test system: HCT-15 colon
[12] = test system: HL-60(TB) leukemia
[13] = test system: HOP-62 NSCLC
[14] = test system: HS 578T breast
[15] = test system: HT29 colon
[16] = test system: IGROV1 ovarian
[17] = test system: KM12 colon
[18] = test system: M14 melanoma
[19] = test system: MALME-3M melanoma
[20] = test system: MCF7 breast
[21] = test system: MDA-MB-231 breast
[22] = test system: MDA-MB-435
[23] = test system: MDA-N
[24] = test system: MOLT-4 leukemia
[25] = test system: NCI-H226 lung
[26] = test system: NCI-H23 lung
[27] = test system: NCI-H460 lung
[28] = test system: NCI-H522 lung
[29] = test system: NCI/ADR-RES ovarian
[30] = test system: OVCAR-3 ovarian
[31] = test system: OVCAR-4 ovarian
[32] = test system: OVCAR-5 ovarian
[33] = test system: OVCAR-8 ovarian
[34] = test system: PC-3 prostate
[35] = test system: RPMI-8226 leukemia
[36] = test system: RXF 393 renal
[37] = test system: SF-268 CNS
[38] = test system: SF-295 CNS
[39] = test system: SF-539 CNS
[40] = test system: SK-MEL-2 melanoma
[41] = test system: SK-MEL-28 melanoma
[42] = test system: SK-MEL-5 melanoma
[43] = test system: SK-OV-3 ovarian
[44] = test system: SN12C renal
[45] = test system: SNB-19 CNS
[46] = test system: SNB-75 CNS
[47] = test system: SR leukemia
[48] = test system: SW-620 colon
[49] = test system: T-47D breast
[50] = test system: TK-10 renal
[51] = test system: U251 CNS
[52] = test system: UACC-62 melanoma
[53] = test system: UO-31 renal
[54] = test system: K-562 leukemia
[55] = test system: LOX IMVI melanoma
[56] = test system: UACC-257 melanoma

Measured: TGI

CC1=C2c3ccccc3N(C(=O)/C=C/C(=O)O)[C@H]2[C@H]2C(=O)OC(=O)[C@H]2C1
> 10 µM: [1] | [2] | [3] | [4] | [5] | [6] | [7] | [8] | [9] | [10] | [11] | [12] | [13] | [14] | [15] | [16] | [17] | [18] | [19] | [20] | [21] | [22] | [23] | [24] | [25] | [26] | [27] | [28] | [29] | [30] | [31] | [32] | [33] | [34] | [35] | [36] | [37] | [38] | [39] | [40] | [41] | [42] | [43] | [44] | [45] | [46] | [47] | [48] | [49] | [50] | [51] | [52] | [53]

N#Cc1c(OCCF)c2ccccc2n2c1nc1ccccc12
52.3 µM: [39]
> 100 µM: [1] | [2] | [3] | [4] | [5] | [6] | [7] | [8] | [9] | [10] | [11] | [12] | [13] | [14] | [15] | [16] | [54] | [17] | [55] | [18] | [20] | [21] | [22] | [23] | [24] | [25] | [26] | [27] | [28] | [29] | [30] | [32] | [33] | [34] | [35] | [36] | [37] | [38] | [40] | [41] | [42] | [43] | [45] | [46] | [47] | [48] | [49] | [50] | [51] | [56] | [52] | [53]
92 µM: [31]
